What was measured:
[1] = system: endogenous target monocytes in human PBMC; test: PBMC ex vivo monocyte depletion flow cytometry assay (Example 200); format: cell-based; conditions: with anti-cotinine antibody (SEQ ID NO: 11/12), 18-24 hours, EC50 in molar, read-out: Ex Vivo Depletion Assay pEC50 (converted)
Outline: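 Monocyte depletion is reported as pEC50, averaged or given individually across runs, and read by flow cytometry staining CD45, CD14 and CD4 with a viability dye. Compounds, diluted four-fold over 11 points from 1 mM DMSO stocks, were combined with 30 μg/mL Fc-enhanced anti-cotinine antibody and human PBMC, then incubated 18-24 h at 37° C.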

[2] = system: CCR2 expressing cells (CD11b+Ly6c+Hi) in peripheral blood; test: In vivo depletion assay, flow cytometry of peripheral blood (Example 201); design: species or system human CCR2 knock-in mice (C57 background); conditions: hCCR2 knock-in mice, IV 0.1 mpk compound + 10 mpk anti-cotinine antibody (SEQ ID NO: 13/14), peripheral blood at 48 hr
Method: Stock solution preparation. Stock solutions of compounds of Formula (I) were prepared at 20 mg/mL and 100 mg/mL in […] for PK/PD and dose tolerability studies respectively. Stock solutions were stored at […] until further usage. on the day of experiment, the stock Solution of the compound of Formula (I) was removed from storage at […] and thawed at room temperature. Anti-cotinine antibody having a heavy chain sequence of SEC ID NO: 13 and a light chain sequence of SEQ ID NO: 14 (rabbit variable region sequence with mouse IgG2a Fc domain), if required was removed from storage at −80° C. and thawed at room temperature. Antibody vials were immediately transferred into wet ice after thawing. Compounds of Formula (I) were further diluted in DMSO as per experimental requirements.
The formulation composition was Saline: DMSI: PBS.
Saline was added based on the quantity required and then stock solution of the compound of Formula (I) prepared in DMSO, followed by addition of antibody in PBS. Formulations were incubated at room temperature for 30 minutes before administration to the mouse. DMSO was used at 1 to % (v/v) in the final formulation.
After bleeding, each mouse was sacrificed by cervical dislocation. […] Flow Cytometry Analysis:
CCR2 depletion in peripheral blood was determined by flow cytometry. Briefly, peripheral blood was collected from all animals at the end of study termination and processed. Blood samples were lysed using 1×RBC Lysis buffer and the resulting cell pellet was washed twice in FACS buffer (HBSS containing 5% FBS). Cells were subjected to Fc blocking using mouse Fc block from Biolegend (Trustain, anti-mouse CD16/32, Cat: 101319) to block non-specific binding followed by surface staining for immune markers (CD45, CD3, CD11 b, Ly6C, human CCR2). Surface staining was done for 30 minutes in ice and cells were washed twice to remove unbound antibodies. Cells were stained with 7AAD to determine viability and acquired on BD FACSVerse flow cytometer. Appropriate FMO controls and single-color controls were included in the experiment for gating and compensation respectively.
Percent depletion of CD11 b+Ly6c+Hi cells and CCR2 expression for the different treatment groups was determined.

CC(C)N(C)[C@@H]1CC[C@H](N2CC[C@H](Nc3ncnc4ccc(C(F)(F)F)cc34)C2=O)[C@H](NC(=O)[C@H]2CC[C@@H](NC(=O)C3CCC4(CC3)CCN(CCNC(=O)[C@H]3CC(=O)N(C)[C@@H]3c3cccnc3)CC4)CC2)C1 [Example 170, N-((1S,4s)-4-(((1R,2S,5R)-5-(Isopropyl(methyl)amino)-2-((S)-2-oxo-3-((6-(trifluoromethyl)quinazolin-4-yl)amino)pyrrolidin-1-yl)cyclohexyl)carbamoyl)cyclohexyl)-3-(2-((2S,3S)-1-methyl-5-oxo-2-(pyridin-3-yl)pyrrolidine-3-carboxamido)ethyl)-3-azaspiro[5.5]undecane-9-carboxamide]
EC50 [1]: 0.398 nM
% Depletion of CCR2 expressing cells [2]: 94.75%

CC(C)N(C)[C@@H]1CC[C@H](N2CC[C@H](Nc3ncnc4ccc(C(F)(F)F)cc34)C2=O)[C@H](NC(=O)CNC(=O)[C@H]2CC[C@@H](NC(=O)COCCOCCNC(=O)[C@H]3CC(=O)N(C)[C@@H]3c3cccnc3)CC2)C1 [Example 136, (2S,3S)-N-(2-(2-(2-(((1S,4R)-4-((2-(((1R,2S,5R)-5-(Isopropyl(methyl)amino)-2-((S)-2-oxo-3-((6-(trifluoromethyl)quinazolin-4-yl)amino)pyrrolidin-1-yl)cyclohexyl)amino)-2-oxoethyl)carbamoyl)cyclohexyl)amino)-2-oxoethoxy)ethoxy)ethyl)-1-methyl-5-oxo-2-(pyridin-3-yl)pyrrolidine-3-carboxamide]
EC50 [1]: 10 nM
% Depletion of CCR2 expressing cells [2]: 88%

CC(C)N(C)[C@@H]1CC[C@H](N2CC[C@H](Nc3ncnc4ccc(C(F)(F)F)cc34)C2=O)[C@H](NC(=O)CCCCOCCCCCCCCOCCCCNC(=O)[C@H]2CC(=O)N(C)[C@@H]2c2cccnc2)C1 [Example 161, (2S,3S)-N-(4-((8-((5-(((1R,2S,5R)-5-(Isopropyl(methyl)amino)-2-((S)-2-oxo-3-((6-(trifluoromethyl)quinazolin-4-yl)amino)pyrrolidin-1-yl)cyclohexyl)amino)-5-oxopentyl)oxy)octyl)oxy)butyl)-1-methyl-5-oxo-2-(pyridin-3-yl)pyrrolidine-3-carboxamide]
EC50 [1]: 0.794 nM
% Depletion of CCR2 expressing cells [2]: 76.67%
